Results taken from US8952024B2, “Herbicidal pyrimidone derivatives” (E I du Pont de Nemours and Company, priority 2009, dated 2015).

Key:
Type in all cases: in vivo
[1] = system: chickweed (Stellaria media); assay: Test B postemergence plant response
Method in brief: (§1)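 Plants grown in peat/vermiculite medium were sprayed postemergence at 2–18 cm height (1- to 4-leaf stage). After 13–15 days in the greenhouse, response was rated visually against untreated controls on a 0–100 scale (0 no effect, 100 complete control).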

[2] = system: canarygrass (Phalaris minor); assay: Test B postemergence plant response
Method in brief: as §1

[3] = system: windgrass (Apera spica-venti); assay: Test B postemergence plant response
Method in brief: as §1

corn (Zea mays) = assay: Test A pre-/postemergence plant response
Method in brief: (§2)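 Greenhouse trial, ~10 days. Soil (loam/sand) sprayed preemergence after seeding; emerged plants (1–2 leaf, 2–10 cm) sprayed postemergence in parallel. Response = visual injury vs untreated control, 0–100.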

[4] = system: wheat (Triticum aestivum); assay: Test A pre-/postemergence plant response
Method in brief: as §2

[5] = system: pigweed (Amaranthus retroflexus); assay: Test A pre-/postemergence plant response
Method in brief: as §2

[6] = system: giant foxtail (Setaria faberii); assay: Test A pre-/postemergence plant response
Method in brief: as §2

[7] = system: velvetleaf (Abutilon theophrasti); assay: Test A pre-/postemergence plant response
Method in brief: as §2

[8] = system: barnyardgrass (Echinochloa crus-galli); assay: Test A pre-/postemergence plant response
Method in brief: as §2

[9] = system: morningglory (Ipomoea spp.); assay: Test A pre-/postemergence plant response
Method in brief: as §2

[10] = system: large crabgrass (Digitaria sanguinalis); assay: Test A pre-/postemergence plant response
Method in brief: as §2

rice (Oryza sativa) = assay: Test B flooded paddy test; conditions: for Plant response rating, Flood, Rice: 250 g ai/ha, flooded paddy test, visual rating on 0 to 100 scale (0 no effect, 100 complete control) after 13 to 15 days; for Plant response rating, Rice: Flood (flooded paddy test), 13 to 15 days
Method in brief: (§3)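 Plants were grown to the 2-leaf stage, then pots were flooded to 3 cm above the soil and compounds were applied directly into the paddy water. That depth was held throughout. After 13 to 15 days in a greenhouse, injury was visually rated against controls on a 0–100 scale.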

[11] = system: ducksalad (Heteranthera limosa); assay: Test B flooded paddy test; conditions: for Plant response rating, Flood, Ducksalad: 250 g ai/ha, flooded paddy test, visual rating on 0 to 100 scale (0 no effect, 100 complete control) after 13 to 15 days; for Plant response rating, Ducksalad: Flood (flooded paddy test), 13 to 15 days
Method in brief: as §3

[12] = 62 g ai/ha, postemergence, 0 is no effect, 100 is complete control, 13 to 15 days
[13] = Postemergence, 31 g ai/ha, 0 to 100 scale (0 no effect, 100 complete control)
[14] = Postemergence, 125 g ai/ha, scale 0 to 100 (0 no effect, 100 complete control)
[15] = Postemergence, 250 g ai/ha, scale 0 to 100 (0 no effect, 100 complete control)
[16] = Postemergence, 125 g ai/ha, 0 to 100 scale where 0 is no effect and 100 is complete control
[17] = Postemergence, 500 g ai/ha, 0 to 100 scale, 0 = no effect, 100 = complete control, approx. ten days
[18] = Preemergence, 125 g ai/ha, 0 to 100 scale, 0 = no effect, 100 = complete control
[19] = Preemergence, 500 g ai/ha, visual injury, 0 to 100 scale (0 no effect, 100 complete control), approx. ten days
[20] = 62 g ai/ha, scale of 0 to 100 where 0 is no effect and 100 is complete control
[21] = 125 g ai/ha, scale 0 to 100, 0 is no effect, 100 is complete control
[22] = Flood, 31 g ai/ha, scale 0 to 100 (0 no effect, 100 complete control)
[23] = Postemergence, 31 g ai/ha, scale 0 to 100 (0 no effect, 100 complete control)
[24] = Postemergence, 62 g ai/ha, scale 0 (no effect) to 100 (complete control), 13 to 15 days
[25] = Postemergence, 125 g ai/ha, visual rating after 13 to 15 days, scale 0 (no effect) to 100 (complete control)
[26] = Postemergence, 250 g ai/ha, scale 0 to 100
[27] = Postemergence, 125 g ai/ha, visual injury, 0 to 100 scale (0 no effect, 100 complete control), approx. ten days
[28] = 31 g ai/ha, scale of 0 to 100 where 0 is no effect and 100 is complete control
[29] = 62 g ai/ha, scale 0 to 100, 0 is no effect, 100 is complete control

## COCCn1c(-c2cccc(F)c2)ncc(C(=O)C2=C(O)CCCC2=O)c1=O [Compound 123]
[1]; [12]
  Chickweed plant response rating (0 to 100 scale): 75
[1]; [13]
  Plant response rating, Chickweed: 70
[1]; [14]
  Plant response rating, Chickweed: 95
[1]; [15]
  Plant response rating, Chickweed: 100
[2]; [12]
  Canarygrass plant response rating (0 to 100 scale): 40
[2]; [13]
  Plant response rating, Canarygrass: 25
[2]; [14]
  Plant response rating, Canarygrass: 55
[2]; [15]
  Plant response rating, Canarygrass: 85
[3]; [12]
  Windgrass plant response rating (0 to 100 scale): 60
[3]; [13]
  Plant response rating, Windgrass: 30
[3]; [14]
  Plant response rating, Windgrass: 80
Corn (Zea mays); [16]
  Plant response rating, Corn: 20
Corn (Zea mays); [17]
  Plant response rating, Corn: 70
Corn (Zea mays); [18]
  Plant response rating, Corn: 0
Corn (Zea mays); [19]
  Plant response rating, Corn: 30
[4]; [16]
  Plant response rating, Wheat: 0
[4]; [17]
  Plant response rating, Wheat: 20
[4]; [18]
  Plant response rating, Wheat: 0
[4]; [19]
  Plant response rating, Wheat: 20
[5]; [16]
  Plant response rating, Pigweed: 100
[5]; [17]
  Plant response rating, Pigweed: 100
[5]; [18]
  Plant response rating, Pigweed: 90
[5]; [19]
  Plant response rating, Pigweed: 100
[6]; [16]
  Plant response rating, Foxtail, Giant: 70
[6]; [17]
  Plant response rating, Foxtail, Giant: 80
[6]; [18]
  Plant response rating, Foxtail, Giant: 50
[6]; [19]
  Plant response rating, Foxtail, Giant: 100
[7]; [16]
  Plant response rating, Velvetleaf: 100
[7]; [17]
  Plant response rating, Velvetleaf: 100
[7]; [18]
  Plant response rating, Velvetleaf: 70
[7]; [19]
  Plant response rating, Velvetleaf: 100
[8]; [16]
  Plant response rating, Barnyardgrass: 80
[8]; [17]
  Plant response rating, Barnyardgrass: 90
[8]; [18]
  Plant response rating, Barnyardgrass: 50
[8]; [19]
  Plant response rating, Barnyardgrass: 100
[9]; [16]
  Plant response rating, Morningglory: 100
[9]; [17]
  Plant response rating, Morningglory: 100
[9]; [18]
  Plant response rating, Morningglory: 70
[10]; [16]
  Plant response rating, Crabgrass, Large: 80
[10]; [17]
  Plant response rating, Crabgrass, Large: 90
[10]; [18]
  Plant response rating, Crabgrass, Large: 100
[10]; [19]
  Plant response rating, Crabgrass, Large: 100
Rice (Oryza sativa)
  Plant response rating, Flood, Rice: 40
Rice (Oryza sativa); [20]
  Plant response rating, Rice: 20
Rice (Oryza sativa); [21]
  Plant response rating, Rice: 30
Rice (Oryza sativa); [22]
  Rice plant response rating: 0
[11]
  Plant response rating, Flood, Ducksalad: 95
[11]; [20]
  Plant response rating, Ducksalad: 80
[11]; [21]
  Plant response rating, Ducksalad: 90
[11]; [22]
  Ducksalad plant response rating: 30

## 3-cyclohexyl-5-[(2-hydroxy-6-oxo-1-cyclohexen-1-yl)carbonyl]-2-phenyl-4(3H)-pyrimidinone [Compound 128]
[1]; [23]
  Plant response rating, Chickweed: 80
[1]; [24]
  Plant response rating, Chickweed: 98
[1]; [25]
  Plant response rating, Chickweed: 100
[1]; [26]
  Chickweed plant response rating: 100
[2]; [23]
  Plant response rating, Canarygrass: 50
[2]; [24]
  Plant response rating, Canarygrass: 50
[2]; [25]
  Plant response rating, Canarygrass: 90
[2]; [26]
  Canarygrass plant response rating: 90
[3]; [23]
  Plant response rating, Windgrass: 40
[3]; [24]
  Plant response rating, Windgrass: 85
[3]; [25]
  Plant response rating, Windgrass: 85
[3]; [26]
  Windgrass plant response rating: 98
Corn (Zea mays); [27]
  Corn plant response rating: 0
Corn (Zea mays); [17]
  Plant response rating, Corn: 20
Corn (Zea mays); [18]
  Plant response rating, Corn: 0
Corn (Zea mays); [19]
  Plant response rating, Corn: 0
[4]; [27]
  Wheat plant response rating: 0
[4]; [17]
  Plant response rating, Wheat: 0
[4]; [18]
  Plant response rating, Wheat: 0
[4]; [19]
  Plant response rating, Wheat: 0
[5]; [27]
  Pigweed plant response rating: 90
[5]; [17]
  Plant response rating, Pigweed: 100
[5]; [18]
  Plant response rating, Pigweed: 60
[5]; [19]
  Plant response rating, Pigweed: 100
[6]; [27]
  Foxtail, Giant plant response rating: 70
[6]; [17]
  Plant response rating, Foxtail, Giant: 90
[6]; [18]
  Plant response rating, Foxtail, Giant: 10
[6]; [19]
  Plant response rating, Foxtail, Giant: 50
[7]; [27]
  Velvetleaf plant response rating: 100
[7]; [17]
  Plant response rating, Velvetleaf: 100
[7]; [18]
  Plant response rating, Velvetleaf: 60
[7]; [19]
  Plant response rating, Velvetleaf: 100
[8]; [27]
  Barnyardgrass plant response rating: 40
[8]; [17]
  Plant response rating, Barnyardgrass: 100
[8]; [18]
  Plant response rating, Barnyardgrass: 0
[8]; [19]
  Plant response rating, Barnyardgrass: 70
[9]; [27]
  Morningglory plant response rating: 90
[9]; [17]
  Plant response rating, Morningglory: 90
[9]; [18]
  Plant response rating, Morningglory: 0
[9]; [19]
  Plant response rating, Morningglory: 70
[10]; [27]
  Crabgrass, Large plant response rating: 50
[10]; [17]
  Plant response rating, Crabgrass, Large: 90
[10]; [18]
  Plant response rating, Crabgrass, Large: 20
[10]; [19]
  Plant response rating, Crabgrass, Large: 90
Rice (Oryza sativa)
  Plant response rating, Flood, Rice: 25
Rice (Oryza sativa); [28]
  Plant response rating, Rice: 0
Rice (Oryza sativa); [29]
  Plant response rating, Rice: 10
Rice (Oryza sativa); [21]
  Plant response rating, Rice: 20
[11]
  Plant response rating, Flood, Ducksalad: 80
[11]; [28]
  Plant response rating, Ducksalad: 0
[11]; [29]
  Plant response rating, Ducksalad: 0
[11]; [21]
  Plant response rating, Ducksalad: 65
